Test results published in patent US20230414786A1, “PERFUSION-GUIDED GENE THERAPY FOR IMPROVING CANCER TREATMENT” (priority 2022, published 2023).

How the values were obtained:
[1] = cited from earlier work
orthotopic NGP tumor [2] = experiment: Animal survival study (days for tumors to increase by 50% above starting volume, up to 14 days); format: in vivo, nude athymic mice; conditions: plasmid transfection followed by L-DOX with sonopermeation; study endpoint 14 days
Procedure: Animal Survival Studies. Survival in vivo experiments were performed as detailed above. Briefly, mature tumors were primed with gene therapy (either mKate or iNOS), transfected by sonopermeation with 1×10^9 cationic polydispersed MBs having median diameter ˜2 μm. 72 h following gene therapy treatment, sonopermeation was performed using net-neutral lipid MBs to deliver liposomal doxorubicin as described above. For this experiment, due to the volume of bubbles needed, size-isolated microbubbles (SIMBs) were obtained from Advanced Microbubbles Inc to perform imaging and sonopermeation. Tumors were measured every other day until they reached the endpoint criteria up to 14 days using calipers, and re-imaged with a bolus of 1×10^7 SIMBs on Day 7 as well as re-dosed with L-DOX in conjunction with sonopermeation. Normalized tumor growth over the two-week observation period was obtained by dividing the volume on any given day by initial tumor volume. Kaplan-Meier curves were generated to plot the number of days it took for tumors to increase by 50% above their starting volume up to 14 days. Survival curves were plotted, and statistical analyses were conducted in Graphpad (Prism 6). Statistical significance between groups represents Mantel-Cox test, with p<0.05 interpreted as significant.

iNOS = experiment: ELISA of protein extracts from transfected NGP cells (iNOS expression); format: cell-based, H. sapiens; conditions: NGP cell protein extracts, n=3
orthotopic NGP tumor [3] = experiment: Quantitative contrast-enhanced ultrasound (qCEUS) imaging of tumor perfusion volume and reperfusion rate; format: in vivo, nude athymic mice
Source text: Orthotopic NGP Tumor Model and Implantation. NGP cells were MYC-N amplified, and thus function as an appropriate model for poor prognosis NB. They reproduce many features of clinical NB, such as histology, frequency, and location of metastatic lesions when renally implanted, as was done in nude athymic mice (Charles River, Wilmington, Mass.) to generate tumor models for this study. Mice were firstly anesthetized with inhalable isoflurane. After being positioned in a sterile environment, the entire right side of each mouse was cleaned with ethanol and painted with Betadine. A 3-5 mm diagonal incision was made with a scalpel blade toward the ribcage atop the kidney. The underlying fascia was cut with scissors to expose the right kidney. […] Mice were monitored daily to confirm complete recovery, and tumors were allowed to grow for 4-5 weeks (1-2-g weight) before ultrasound experiments were initiated. […]
3D Volume and 2D Perfusion Imaging. […] Data were collected and subsequently analyzed using custom LabVIEW software, where tumor boundaries were manually segmented. […] As described in Wei K, et al., Quantification of Myocardial Blood Flow With Ultrasound-Induced Destruction of Microbubbles Administered as a Constant Venous Infusion, Circulation, 1998; 97: 473-83, MB perfusion conforms to the equation y=A (1−e^βt), where A is the relative blood volume (RBV) and β is the rate of reperfusion. […]

[4] = system: iNOS expression in adjacent glomeruli; experiment: iNOS immunohistochemistry in adjacent kidney glomeruli after sonopermeation transfection; format: in vivo, nude athymic mice; conditions: p>0.05
Source text: Quantitative Ex Vivo Imaging. For iNOS expression colocalization studies, sections were imaged on a Marianas Confocal (Zeiss) using a 40X oil objective, capturing 14 steps of 0.33 μm on the z-axis, with a resolution of 0.33 μm per pixel. At least five images of each tumor of were taken, with four tumors per group. To avoid bias, the endothelial marker Isolectin-B4 was used to determine image capture and focus and iNOS staining was captured at equal exposure times for all tissues. The images were then analyzed in ImageJ (NIH, USA), selecting the lectin-positive area of the picture taken to create the area to be quantified. This area was then used to quantify the mean intensity of the iNOS staining within the tumor endothelium. The mean iNOS intensity within each tumor endothelium z-stack was then averaged to obtain the mean iNOS intensity of each tumor blood vessel analyzed. Averages were then obtained for each tumor. Because tumor cells were injected directly into the kidney and often coopt glomeruli and tubules (PMID: 24066611), NOS expression was quantified in the adjacent kidney in a separate analysis, following the same method as tumor iNOS quantification. Quantification of pimonidazole and Isolectin was performed using the average intensities from the respective stains comparing the iNOS treated and Sham groups using FIJI (NIH). […]

orthotopic NGP tumor [5] = experiment: Immunohistochemical analysis of tumor vascularity and hypoxia (Isolectin-B4, aSMA, pimonidazole) 72 h after transfection; format: in vivo, nude athymic mice; parameters: unit not given here
Procedure: Tumoral Hypoxia Measurements. 60 mg/kg pimonidazole-HCl (Hypoxyprobe, Massachusetts) was injected intraperitoneally 30 min before sacrifice, and tissues were harvested and processed as described above.
Immunohistochemistry. Excised NGP tumors were embedded in Tissue-Tek® optimum cutting temperature (O.C.T.) compound (Electron Microscopy Services), then stored at −20 ° C. until cryosectioned (Leica CM1860). 15 μm thick cryosections were fixed with acetone and permeabilized with Tween 20. […]
Quantitative Ex Vivo Imaging. […] The images were then analyzed in ImageJ (NIH, USA), selecting the lectin-positive area of the picture taken to create the area to be quantified. This area was then used to quantify the mean intensity of the iNOS staining within the tumor endothelium. The mean iNOS intensity within each tumor endothelium z-stack was then averaged to obtain the mean iNOS intensity of each tumor blood vessel analyzed. […] Because tumor cells were injected directly into the kidney and often coopt glomeruli and tubules (PMID: 24066611), NOS expression was quantified in the adjacent kidney in a separate analysis, following the same method as tumor iNOS quantification. Quantification of pimonidazole and Isolectin was performed using the average intensities from the respective stains comparing the iNOS treated and Sham groups using FIJI (NIH). […]

[6] = system: iNOS expression in tumor endothelium of NGP tumors; experiment: iNOS immunohistochemistry in tumor endothelium (lectin-positive area) 72 h after sonopermeation transfection; format: in vivo, nude athymic mice; conditions: 72 h after transfection
Source text: Orthotopic NGP Tumor Model and Implantation. NGP cells were MYC-N amplified, and thus function as an appropriate model for poor prognosis NB. They reproduce many features of clinical NB, such as histology, frequency, and location of metastatic lesions when renally implanted, as was done in nude athymic mice (Charles River, Wilmington, Mass.) to generate tumor models for this study. Mice were firstly anesthetized with inhalable isoflurane. After being positioned in a sterile environment, the entire right side of each mouse was cleaned with ethanol and painted with Betadine. A 3-5 mm diagonal incision was made with a scalpel blade toward the ribcage atop the kidney. The underlying fascia was cut with scissors to expose the right kidney. A 27-gauge needle (of length 1.3 cm, BD Biosciences) fitted to a syringe containing 20 μL of cell suspension (1×10^6 NGP cells in Phosphate Buffered Saline, Leibniz Institute DSMZ-GmbH, Braunschweig, Germany) was inserted into the kidney and its contents injected slowly. The kidney was then returned to the abdominal cavity. […] Mice were monitored daily to confirm complete recovery, and tumors were allowed to grow for 4-5 weeks (1-2-g weight) before ultrasound experiments were initiated. […]
Quantitative Ex Vivo Imaging. […] The images were then analyzed in ImageJ (NIH, USA), selecting the lectin-positive area of the picture taken to create the area to be quantified. […]

## [N]=O [NO, Nitric oxide]
[1]; in vivo
  half-life in vivo: < 0.002 s
[1]; whole blood
  half-life in whole blood: 0.0018 s

## Sham
Orthotopic NGP tumor [2]
  median survival time (time to 50% tumor growth): 9 days
iNOS
  iNOS protein by ELISA: 0.04 units
Orthotopic NGP tumor [3]; 3 days post-transfection
  change in RBV (normalized to tumor volume, vascularity) from baseline: 68±7%
Orthotopic NGP tumor [3]; day 3 after transfection
  rate of MB reperfusion (RR) normalized to TV: 77±8%
[4]
  iNOS expression in adjacent glomeruli: remains unchanged
Orthotopic NGP tumor [5]
  distance between aSMA pericytes and endothelium: 5.8±1.1
[6]
  iNOS in tumor endothelial cells compared with untreated tumors: no change in iNOS
[6]; n=4 per group
  iNOS mean intensity within lectin-positive area: 8,814±2,952
